Reference: US5138067A, “Lipid derivatives” (Shionogi & Co. Ltd., priority 1991, dated 1992)

Test system: platelet aggregation induced by PAF
Test: PAF-induced platelet aggregation inhibition (method of Born, aggregometer, platelet rich plasma)
Format: cell-based
Conditions: Oryctolagus cuniculus, Platelet, 2 min, in vitro, rabbit PRP 50-55×10^4 /μl, 37° C., PAF C16 final 20 nM added 2 minutes after compound; read-out: IC50 (concentration of the test compounds which inhibit 50% platelet aggregation)
Description: Mature male rabbits (NIBS-JW, RABITON Institute Inc., weighing 2.2-2.5 kg) were used. […] (The total volume of blood sample in each tube was adjusted to 8 ml.)
The blood sample in each tube was gently shaken and then centrifuged for 10 minutes at 200 g at 22° C. to give platelet rich plasma (PRP). The remaining blood was further centrifuged at 3,000 rpm (about 1,900 g) for 10 minutes at 22° C. to give platelet-poor plasma (PPP).
PRP was diluted with PPP to prepare a blood sample whose platelet number was 50-55×10^4 /μl. The sample was then subjected to a platelet aggregation test.
A volume of 230 μl of PRP, whose platelet number was adjusted to 50-55×10^4 /μl, was placed in a measuring cuvette and set in the aggregometer. PRP was warmed at 37° C. for 1 minute with stirring at 1,200 rpm, and then a solution of the test compound [dimethylsulfoxide solution (1μl) of the compound+saline (9μl)] was added thereto. Exactly 2 minutes later, 10 μl of platelet activating factor (PAF, C16) (final concentration: 20 nM) was added as a platelet aggregating agent, and the change in light transmission caused by platelet aggregation was recorded.
The light transmissions of PRP and PPP were taken as 0% and 100% aggregation, respectively, and the maximum light transmission after addition of an aggregating agent was made the maximum aggregation. The inhibition rate of the platelet aggregation was expressed as the percentage of the maximum aggregation by a test compound to that by a control (Vehicle added group).

IC50 [µM]	Molecule
0.873	CCCCCCCCCCCCCCCCSCC(CNS(=O)(=O)CCC[n+]1cccc2ccccc21)NC(=O)NC (stereo not drawn) [I f4]
1.83	CCCCCCCCCCCCCCCCCCNC(=O)OCC(CNS(=O)(=O)CCC[n+]1cccc2ccccc21)NC(C)=O (stereo not drawn) [I g4, 2-acetamido-1-octadecylcarbamoyloxy-3-(3-quinoliniopropylsulfonylamino)propane iodide]
1.93	CCCCCCCCCCCCCCCCCCNC(=O)SCC(CNS(=O)(=O)CCC[n+]1ccsc1)OC (stereo not drawn) [I a26, 2-methoxy-1-octadecylcarbamoylthio-3-(3-thiazoliniopropylsulfonylamino)propane iodide]
0.34	CCCCCCCCCCCCCCCCCCNC(=O)OCC(COC)CN(C(C)=O)S(=O)(=O)CCC[n+]1cccc2ccccc21 (stereo not drawn) [I k6, 3-(N-acetyl-3-quinoliniopropylsulfonylamino)-2-methoxymethyl-1-octadecylcarbamoyloxypropane iodide]
0.25	CCCCCCCCCCCCCCCCCCNC(=O)OCC(CNS(=O)(=O)CCC[n+]1cccc2ccccc21)Oc1ccon1 (stereo not drawn) [I j3, 2-(3-isoxazolyloxy)-1-octadecylcarbamoyloxy-3-(3-quinoliniopropylsulfonylamino)propane iodide]
1.29	CCCCCCCCCCCCCCCCCCNC(=O)OCC(CNS(=O)(=O)CCCC[n+]1cccc2ccccc21)OC (stereo not drawn) [I a14]
82.1	CCCCCCCCCCCCCCCCSCC(CNS(=O)(=O)CCC[N+](C)(C)C)OC (stereo not drawn) [I a8, 1-hexadecylthio-2-methoxy-3-(3-trimethylammoniopropylsulfonylamino)propaneiodide]
1.77	CCCCCCCCCCCCCCCCCCNC(=O)OCC(CNS(=O)(=O)CCCC[n+]1ccsc1)OC (stereo not drawn) [I a13, 2-methoxy-1-octadecylcarbamoyloxy-3-(4-thiazoliobutylsulfonylamino)propaneiodide]
0.85	CCCCCCCCCCCCCCCCSCC(CNS(=O)(=O)CCC[n+]1cccc2ccccc21)NC(=O)OC (stereo not drawn) [I e7, 1-hexadecylthio-2-methoxycarbonylamino-3-(3-quinoliniopropylsulfonylamino)propane iodide]
13.5	CCCCCCCCCCCCCCCCCCNC(=O)OCC(CNS(=O)(=O)CCCC[n+]1ccc2ccccc2c1)OC (stereo not drawn) [I a16]
0.65	CCCCCCCCCCCCCCCCCCNC(=O)OCC(CNS(=O)(=O)CCC[n+]1cccc2ccccc21)OC (stereo not drawn) [I a7]
0.385	CCCCCCCCCCCCCCCCCCNC(=O)OCC1(CNS(=O)(=O)CCC[n+]2cccc3ccccc32)CCCO1 (stereo not drawn) [I b2, 2-octadecylcarbamoyloxymethyl-2-(3-qunoliniopropylsulfonylaminomethyl)tetrahydrofuran iodido]
0.36	CCCCCCCCCCCCCCCCCCNC(=O)SCC(CNS(=O)(=O)CCC[n+]1cccc2ccccc21)OC (stereo not drawn) [I a25, 2-methoxy-1-octadecylcarbamoylthio-3-(3-quinoliniopropylsulfonylamino)propane iodide]
79.9	CCCCCCCCCCCCCCCCOCC(CNS(=O)(=O)CCC[N+](C)(C)C)OC (stereo not drawn) [I a10, 1-hexadecyloxy-2-methoxy-3-(3-trimethylammoniopropylsulfonylamino)propane iodide]
48.1	CCCCCCCCCCCCCCCCCCNC(=O)OCC(CNS(=O)(=O)CCC[N+](C)(C)C)OC (stereo not drawn) [I a1, 2-methoxy-1-octadecylcarbamoyloxy-3-(3-trimethylammoniosulfonylamino)propane chloride]
0.4	CCCCCCCCCCCCCCCCCCNC(=O)OCC(CNS(=O)(=O)CCC[n+]1cccc2ccccc21)COC (stereo not drawn) [I k5, 2-methoxymethyl-1-octadecylcarbamoyloxy-3-(3-quinoliniopropylsulfonylamino)propane iodide]
14.3	CCCCCCCCCCCCCCCCSCC(CNS(=O)(=O)CCC[N+](C)(C)C)NC(C)=O (stereo not drawn) [I g2, 2-acetamido-1-hexadecylthio-3-(3-trimethylammoniopropylsulfonylamino)propane iodide]

IC50 [µM]	Molecule
3.64	CCCCCCCCCCCCCCCCSCC(CNS(=O)(=O)CCC[n+]1ccsc1)OC (stereo not drawn) [I a9, 1-hexadecylthio-2-methoxy-3-(3-thiazoliopropylsulfonylamino)propane iodide]
5.95	CCCCCCCCCCCCCCCCCCNC(=O)OCC(CNS(=O)(=O)CC[n+]1ccsc1)OC (stereo not drawn) [I a12, 2-methoxy-1-octadecylcarbamoyloxy-3-(2-thiazolioethylsulfonylamino)propaneiodide]
80.3	CCCCCCCCCCCCCCCCSCC(CNS(=O)(=O)CCC[N+](C)(C)C)COC (stereo not drawn) [I k4, 1-hexadecylthio-2-methoxymethyl-3-(3-trimethylammoniopropylsulfonylamino)propane iodide]
2.97	CCCCCCCCCCCCCCCCOCC(CNS(=O)(=O)CCC[n+]1ccsc1)OC (stereo not drawn) [I a11, 1-hexadecyloxy-2-methoxy-3-(3-thiazoliopropylsulfonylamino)propane iodide]
0.92	CCCCCCCCCCCCCCCCSCC(CNS(=O)(=O)CCC[n+]1cccc2ccccc21)OC(=O)NC (stereo not drawn) [I c1, 1-hexadecylthio-2-methylcarbamoyloxy-3-(3-quinoliniopropylsulfonylamino)propane iodide]
1.89	CCCCCCCCCCCCCCCCCCNC(=O)OCC(CNS(=O)(=O)CCC[n+]1cscc1C)OC (stereo not drawn) [I a5]
0.965	CCCCCCCCCCCCCCCCCCNC(=O)OCC(CNS(=O)(=O)CCC[n+]1cccc2ccccc21)NC(=O)NC (stereo not drawn) [I f3, 1-octadecylcarbamoyloxy-2-(3-methylureido)-3-(3-quinoliniopropylsulfonylamino)propane iodide]
45.4	CCCCCCCCCCCCCCCCCCNC(=O)OCC(CNS(=O)(=O)CCC[n+]1ccncc1)OC (stereo not drawn) [I a6]
0.259	CCCCC[C@H](O)/C=C/[C@H]1[C@H](O)CC(=O)[C@@H]1CCCCCCC(=O)O [PGE1, reference compound]
23.2	CCCCCCCCCCCCCCCCSCC(CNS(=O)(=O)CCC[N+](C)(C)C)n1nnc(C)n1 (stereo not drawn) [I h1, 1-hexadecylthio-2-(5-methyl-2H-tetrazol-2-yl)-3-(3-trimethylammoniopropylsulfonylamino)propane iodide]
0.33	CCCCCCCCCCCCCCCCCCNC(=O)OCC(CNS(=O)(=O)CCC[n+]1cccc2ccccc21)OC(=O)NC (stereo not drawn) [I c3, 2-methylcarbamoyloxy-1-octadecylcarbamoyloxy-3(3-quinoliniopropylsulfonylamino)propane iodide]
1.89	CCCCCCCCCCCCCCCCCCNC(=O)OCC(CNS(=O)(=O)CCC[n+]1ccsc1)OC (stereo not drawn) [I a2, 2-methoxy-1-octadecylcarbamoyloxy-3-(3-thiazoliopropylsulfonylamino)propane iodide]
1.32	CCCCCCCCCCCCCCCCCCNC(=O)OCC(CN(C(C)=O)S(=O)(=O)CCC[n+]1cccc2ccccc21)NC(C)=O (stereo not drawn) [I g6, 3-(N-acetyl-3-quinoliniopropylsulfonylamino)-2-acetamido-1-octadecylcarbamoyloxypropane iodide]
0.533	CCCCCCCCCCCCCCCCCCNC(=O)OCC(CNS(=O)(=O)CCC[n+]1cccc2ccccc21)NC(=O)OC (stereo not drawn) [I e5, 1-octadecylcarbamoyloxy-2-methoxycarbonylamino-3-(3-quinoliniopropylsulfonylamino)propane iodide]
0.6	CCCCCCCCCCCCCCCCOCC(CNS(=O)(=O)CCC[n+]1cccc2ccccc21)COC (stereo not drawn) [I k3, 1-hexadecyloxy-2-methoxymethyl-3-(3-quinoliniopropylsulfonylamino)propane iodide]
64.2	CCCCCCCCCCCCCCCCCCNC(=O)OCC(CNS(=O)(=O)CCC[N+]1(C)CCOCC1)OC (stereo not drawn) [I a4]
5.2	CCCCCCCCCCCCCCCCCCNC(=O)OCC(CNS(=O)(=O)CCC[n+]1ccccc1)OC (stereo not drawn) [I a3]

Molecule	IC50 [µM]
CCCCCCCCCCCCCCCCSCC(CNS(=O)(=O)CCC[n+]1cccc2ccccc21)NC(=O)OC(C)(C)C (stereo not drawn) [I e8, 2-tert-butoxycarbonylamino-1-hexadecylthio-3-(3-quinoliniopropylsulfonylamino)propane iodide]	1.97
CCCCCCCCCCCCCCCCCCNC(=O)OCC(CNS(=O)(=O)CCC[n+]1cccc2ccccc21)NC(=O)OC(C)(C)C (stereo not drawn) [I e6, 2-tert-butoxycarbonylamino-1-octadecylcarbamoyloxy-3-(3-quinoliniopropylsulfonylamino)propane iodide]	3.09

Same assay, conditions: in vitro, rabbit PRP 50-55×10^4 /μl, 37° C., PAF C16 final 20 nM added 2 minutes after compound; read-out: IC50 (concentration of the test compounds which inhibit 50% platelet aggregation)

Molecule	IC50 [µM]
CCCCCCCCCCCCCCCCCCNC(=O)OCC(CNS(=O)(=O)CCCC[n+]1ccc2ccccc2c1)OC (stereo not drawn) [I a20]	16
2-methoxy-1-octadecylcarbamoylthio-3-(4-quinoliniopropylsulfonyamino)propane chloride [I a27]	0.74

Test system: platelet aggregation induced by PAF
Test: not given
Conditions: known property of the reference compound; cited from earlier work

Molecule	inhibition of PAF-induced platelet aggregation (known)
CCCCC[C@H](O)/C=C/[C@H]1[C@H](O)CC(=O)[C@@H]1CCCCCCC(=O)O [PGE1, reference compound]	potently inhibit the PAF-induced platelet aggregation
